Laboratory results published in patent publication US20230241071A1, “COMBINATION TREATMENT OF LIVER DISORDERS” (Terns Pharmaceuticals, Inc., priority 2021, published 2023).
pIC50: −log10 of the molar value.

Target: T1, OATP1B3 (Homo sapiens, UniProt Q9NPD5)
T1 sequence (Q9NPD5 1-702): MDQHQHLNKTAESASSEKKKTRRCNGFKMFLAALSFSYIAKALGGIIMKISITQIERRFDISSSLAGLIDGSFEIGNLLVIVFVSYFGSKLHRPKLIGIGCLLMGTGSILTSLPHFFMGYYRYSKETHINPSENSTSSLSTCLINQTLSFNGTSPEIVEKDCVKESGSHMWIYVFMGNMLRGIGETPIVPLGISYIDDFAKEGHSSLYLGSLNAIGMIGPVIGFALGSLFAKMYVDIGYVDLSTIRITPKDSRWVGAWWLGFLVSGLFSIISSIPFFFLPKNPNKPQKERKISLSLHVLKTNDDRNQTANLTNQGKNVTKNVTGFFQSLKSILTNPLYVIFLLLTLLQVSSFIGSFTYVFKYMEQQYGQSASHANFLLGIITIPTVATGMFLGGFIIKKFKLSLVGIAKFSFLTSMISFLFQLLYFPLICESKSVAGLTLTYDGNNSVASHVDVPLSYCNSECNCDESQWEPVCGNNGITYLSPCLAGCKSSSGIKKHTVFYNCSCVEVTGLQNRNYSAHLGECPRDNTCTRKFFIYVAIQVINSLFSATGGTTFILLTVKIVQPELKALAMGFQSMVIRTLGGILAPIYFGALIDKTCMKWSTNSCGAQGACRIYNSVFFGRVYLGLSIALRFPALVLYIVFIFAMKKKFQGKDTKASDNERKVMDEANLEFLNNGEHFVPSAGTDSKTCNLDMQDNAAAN
Assay: In vitro transporter inhibition, OATP1B3
Assay type: in vitro ADME

Compound: N#Cc1nn(-c2cc(Cl)c(Oc3n[nH]c(=O)c4ccccc34)c(Cl)c2)c(=O)[nH]c1=O [Compound 2, 2-(3,5-dichloro-4-((4-oxo-3,4-dihydrophthalazin-1-yl)oxy)phenyl)-3,5-dioxo-2,3,4,5-tetrahydro-1,2,4-triazine-6-carbonitrile]
- pIC50: 6.15
